# Test results taken from BindingDB's records for doi:10.1016/0028-3908(95)00017-z (Merz, 1995).
# Values joined by “and” are separate entries in the source; they are usually repeats but may differ in a detail not shown here. Equal entries are not always repeated.
# Target: Glutamate receptor ionotropic, NMDA 1 (Rattus norvegicus, UniProt P35439)
row,SMILES,Ki
1,CN[C@@]1(c2ccccc2Cl)CCCCC1=O [2-(2-Chloro-phenyl)-2-methylamino-cyclohexanone(Ketamine)],1190 nM and 2510 nM
2,N[C@@H](Cc1ccc(Cl)cc1)C(=O)O [CAS_7424-00-2],42.2 nM and 180 nM
